SMILES: CS(=O)(=O)c1cccc(C[C@H](NC(=O)c2c(Cl)cc3c(c2Cl)CCN(C(=O)c2ccc4ccoc4c2)C3)C(=O)O)c1
- solubility (mole fraction) (in PEG-400, 288.15 K): 0.0757
- solubility (mole fraction) (in PEG-400, 293.15 K): 0.0767
- solubility (mole fraction) (in PEG-400, 298.15 K): 0.0776
- solubility (mole fraction) (in PEG-400, 303.15 K): 0.0786
- solubility (mole fraction) (in PEG-400, 308.15 K): 0.0796
- solubility (mole fraction) (in glycerin, 288.15 K): 0.000104
- solubility (mole fraction) (in glycerin, 293.15 K): 0.000118
- solubility (mole fraction) (in glycerin, 298.15 K): 0.000133
- solubility (mole fraction) (in glycerin, 303.15 K): 0.000151
- solubility (mole fraction) (in glycerin, 308.15 K): 0.000167
- solubility (mole fraction) (in propylene glycol, 288.15 K): 0.00102
- solubility (mole fraction) (in propylene glycol, 293.15 K): 0.00119
- solubility (mole fraction) (in propylene glycol, 298.15 K): 0.00138
- solubility (mole fraction) (in propylene glycol, 303.15 K): 0.00161
- solubility (mole fraction) (in propylene glycol, 308.15 K): 0.00183
- solubility (mole fraction) (in transcutol, 288.15 K): 0.015
- solubility (mole fraction) (in transcutol, 293.15 K): 0.0159
- solubility (mole fraction) (in transcutol, 298.15 K): 0.0168
- solubility (mole fraction) (in transcutol, 303.15 K): 0.0178
- solubility (mole fraction) (in transcutol, 308.15 K): 0.0187
- solubility (mole fraction) (in water, 288.15 K): 1.49e-06
- solubility (mole fraction) (in water, 293.15 K): 1.85e-06
- solubility (mole fraction) (in water, 298.15 K): 2.31e-06
- solubility (mole fraction) (in water, 303.15 K): 2.79e-06
- solubility (mole fraction) (in water, 308.15 K): 3.37e-06
